Assay results published in ChEMBL document CHEMBL1132803, “L-Selenohomocysteine: one-step synthesis from L-selenomethionine and kinetic analysis as substrate for methionine synthases” (Bioorg Med Chem Lett, 2000).

Experiments:
[1] = Specific activity of compound was determined; type: ADME
[2] = Second order rate constant was determined; type: ADME

NC(CCS)C(=O)O (configuration not stated) [HOMOCYSTEINE] gave a Specific activity [1] of 0.23 µM/min/mg and a Km [2] of 69 µM.
